Results published in patent US11535623B2, “Cryptate compounds” (Australian Nuclear Science and Technology Organisation, priority 2011, dated 2022).

Legend:
[1] = Clearance from the kidneys after administration to mice; format: in vivo, BALB/c mice; settings: administered to balb/s mice; Cu complex
Text: For example, the functional group of R^5 may be hydrophobic or may be hydrophilic. Having a hydrophobic entity will encourage clearance of a compound of the present invention that is complexed with a metal ion or metal ion radionuclide through the liver, while a hydrophilic entity will predominantly clear through the kidney.

[2] = 64Cu radiolabelling at room temperature; kinetically inert complexes; cited from earlier work

Row | SMILES | clearance / retention in the kidneys [1] | stability of 64Cu complex to excess EDTA challenge [2]
1 | NC12CNCCNCC(N)(CNCCNC1)CNCCNC2.[Cu+2] [Cu-diamsar] | rapidly cleared from the kidneys | 
2 | C1CNCC2CNCCNCC(CN1)CNCCNC2.[Cu+2] [Cu-sar] | retained for a relatively longer period of time in the kidneys | 
3 | Nc1ccc(CNC23CNCCNCC(N)(CNCCNC2)CNCCNC3)cc1 [Sarar, 1-N-(4-aminobenzyl)-3,6,10,13,16,19-hexaazabicyclo[6.6.6]eicosane-1,8-diamine] |  | stable to excess EDTA challenge
